Structures can show the parent of a compound that is named as a salt.

A short description of the first series: in vitro. To be noted: rat, gh3-tre-luc cells, AC50 (uM) modified / 1000.
By CC50 is commonly meant the concentration giving 50% cytotoxicity. A lower CC50 goes with greater toxicity to the cells. The compound `CCO/N=C(\CC)C1=C(O)CC(c2c(C)cc(C)cc2C)CC1=O` (stereo not shown) [Tralkoxydim] came in with a CC50 at 24 h greater than 90 µM.

On to `COc1cccc([C@@]2(O)CCCC[C@@H]2CN(C)C)c1` [Tramadol hydrochloride], for which the CC50 at 24 h is greater than 50 µM.

The compound `c1cc2c(c(NC3=NCCN3)c1)CCCC2` [Tramazoline tosylate] displayed a CC50 at 24 h greater than 50 µM.

Consider `CCOC(=O)[C@H](CCc1ccccc1)N[C@@H](C)C(=O)N1[C@H](C(=O)O)C[C@H]2CCCC[C@@H]21` [Trandolapril], for which the CC50 at 24 h is greater than 50 µM.

Compound `NC[C@H]1CC[C@H](C(=O)O)CC1` [Tranexamic acid] showed a CC50 at 24 h greater than 20 µM.

As for `COc1ccc(/C=C/C(=O)Nc2ccccc2C(=O)O)cc1OC` [Tranilast], the cytotoxic concentration (CC50) at 24 h was greater than 50 µM.

`CC1(C)[C@H](C=C(Cl)Cl)[C@H]1C(=O)OCc1c(F)c(F)cc(F)c1F` [Transfluthrin] yielded a CC50 at 24 h greater than 50 µM.

Compound `N[C@@H]1C[C@H]1c1ccccc1` [Tranylcypromine hydrochloride] displayed a CC50 at 24 h greater than 50 µM.

The compound `OC[C@H]1O[C@H](O[C@H]2O[C@H](CO)[C@@H](O)[C@H](O)[C@H]2O)[C@H](O)[C@@H](O)[C@@H]1O` [Trehalose dihydrate] showed a cytotoxic concentration (CC50) at 24 h greater than 90 µM.

In turn, `NC(=O)Cn1c(=O)cc(CCN2CCN(c3nccc4sccc34)CC2)c2ccc(F)cc21` [Trelanserin] showed a CC50 at 24 h of 52.8 µM.

`CC(=O)O[C@H]1CC[C@H]2[C@@H]3CCC4=CC(=O)CCC4=C3C=C[C@]12C` [Trenbolone acetate]: the CC50 at 24 h is greater than 50 µM.

For the compound `CS(=O)(=O)OC[C@H](O)[C@@H](O)COS(C)(=O)=O` [Treosulfan], the CC50 at 24 h is greater than 50 µM.

The compound `CCOc1cc(OCC)c(C(=O)CCC(=O)O)cc1OCC` [Trepibutone] gave a CC50 at 24 h greater than 50 µM.

`COc1cc2c(cc1OC)[C@@H](c1ccccc1)CN(C)CC2` [Trepipam maleate] registered a CC50 at 24 h greater than 50 µM.

The compound `COc1cc2c(cc1OC)-c1c/c(=N\c3c(C)cc(C)cc3C)n(C)c(=O)n1CC2` [Trequinsin hydrochloride] had a CC50 at 24 h of 20.3 µM.

For `CC1=C(/C=C/C(C)=C/C=C/C(C)=C/C(=O)Oc2c(C)c(C)c3c(c2C)CC[C@@](C)(CCC[C@H](C)CCC[C@H](C)CCCC(C)C)O3)C(C)(C)CCC1` [Tretinoin tocoferil], the CC50 at 24 h is greater than 50 µM.

In turn, `CC(=O)OCC(COC(C)=O)OC(C)=O` [Triacetin] gave a 50% cytotoxic concentration (CC50) at 24 h greater than 90 µM.

The compound `CC(C)(C)C(=O)C(Oc1ccc(Cl)cc1)n1cncn1` (stereo not shown) [Triadimefon] registered a CC50 at 24 h greater than 90 µM.

The compound `CC(C)(C)C(O)C(Oc1ccc(Cl)cc1)n1cncn1` (stereo not shown) [Triadimenol] registered a CC50 at 24 h greater than 90 µM.

Turning to `C=CCn1c(=O)n(CC=C)c(=O)n(CC=C)c1=O` [Triallyl isocyanurate], the CC50 at 24 h is greater than 90 µM.

On to `C=CCOC(=O)c1ccc(C(=O)OCC=C)c(C(=O)OCC=C)c1` [Triallyl trimellitate], for which the CC50 at 24 h was greater than 90 µM.

For `C=CCN(CC=C)CC=C` [Triallylamine], the CC50 at 24 h is greater than 90 µM.

Take `CC1(C)O[C@@H]2C[C@H]3[C@@H]4CCC5=CC(=O)C=C[C@]5(C)[C@@]4(F)[C@@H](O)C[C@]3(C)[C@]2(C(=O)CO)O1` [Triamcinolone acetonide]: the CC50 at 24 h is greater than 90 µM.

Take `CC(=O)OCC(=O)[C@@]1(O)[C@H](OC(C)=O)C[C@H]2[C@@H]3CCC4=CC(=O)C=C[C@]4(C)[C@@]3(F)[C@@H](O)C[C@@]21C` [Triamcinolone diacetate]: the CC50 at 24 h is greater than 50 µM.

In turn, `CC(C)(C)CC(=O)OCC(=O)[C@@]12OC(C)(C)O[C@@H]1C[C@H]1[C@@H]3CCC4=CC(=O)C=C[C@]4(C)[C@@]3(F)[C@@H](O)C[C@@]12C` [Triamcinolone hexacetonide] returned a CC50 at 24 h greater than 50 µM.

In turn, `C[C@]12C=CC(=O)C=C1CC[C@H]1[C@@H]3C[C@@H](O)[C@](O)(C(=O)CO)[C@@]3(C)C[C@H](O)[C@@]12F` [Triamcinolone] showed a CC50 at 24 h greater than 90 µM.

The compound `Nc1nc(N)c2nc(-c3ccccc3)c(N)nc2n1` [Triamterene] registered a half-maximal cytotoxic concentration (CC50) at 24 h greater than 90 µM.

Compound `COc1nc(C)nc(NC(=O)NS(=O)(=O)c2ccccc2OCCCl)n1` [Triasulfuron] yielded a CC50 at 24 h greater than 90 µM.

`Cc1nnc2n1-c1ccc(Cl)cc1C(c1ccccc1Cl)=NC2` [Triazolam] gave a CC50 at 24 h greater than 50 µM.

In turn, `CCOC1O[C@H]([C@@H](COCc2ccccc2)OCc2ccccc2)[C@H](OCc2ccccc2)[C@H]1O` (stereo partly shown) [Tribenoside] gave a CC50 at 24 h greater than 20 µM.

For `COC(=O)c1ccccc1S(=O)(=O)NC(=O)N(C)c1nc(C)nc(OC)n1` [Tribenuron-methyl], the CC50 at 24 h was greater than 100 µM.

For `c1ccc(CN(Cc2ccccc2)Cc2ccccc2)cc1` [Tribenzylamine], the CC50 at 24 h is greater than 90 µM.

As to `CCCCN(CCCC)CCCC` [Tributylamine], the CC50 at 24 h was greater than 90 µM.

As to `CCCC[P+](C)(CCCC)CCCC` [Tributylmethylphosphonium methyl sulfate], the CC50 at 24 h was greater than 90 µM.

The compound `CCCCP(CCCC)CCCC` [Tributylphosphine] came in with a CC50 at 24 h greater than 90 µM.

On to `CCCCCCCC(=O)OCC(COC(=O)CCCCCCC)OC(=O)CCCCCCC` [Tricaprylin], for which the CC50 at 24 h was greater than 90 µM.

`NS(=O)(=O)c1cc2c(cc1Cl)NC(C(Cl)Cl)NS2(=O)=O` (stereo not shown) [Trichlormethiazide] had a CC50 at 24 h greater than 20 µM.

For `O=C(O)C(Cl)(Cl)Cl` [Trichloroacetic acid], the CC50 at 24 h was greater than 90 µM.

On to `N#CC(Cl)(Cl)Cl` [Trichloroacetonitrile], for which the CC50 at 24 h was greater than 90 µM.

In turn, `O=C(Cl)C(Cl)(Cl)Cl` [Trichloroacetyl chloride] gave a CC50 at 24 h greater than 90 µM.

Turning to `ClC=C(Cl)Cl` [Trichloroethylene], the CC50 at 24 h is greater than 90 µM.

The compound `FC(Cl)(Cl)Cl` [Trichlorofluoromethane] gave a CC50 at 24 h greater than 90 µM.

`CSc1nc2cc(Cl)c(Oc3cccc(Cl)c3Cl)cc2[nH]1` [Triclabendazole] gave a cytotoxic concentration (CC50) at 24 h of 28.5 µM.

Compound `CCCCOCCOC(=O)COc1nc(Cl)c(Cl)cc1Cl` [Triclopyr butotyl] came in with a CC50 at 24 h greater than 90 µM.

Turning to `O=C(O)COc1nc(Cl)c(Cl)cc1Cl` [Triclopyr], the CC50 at 24 h was greater than 90 µM.

In the case of `OCC1CC2CC1C1CCC(CO)C21` (stereo not shown) [Tricyclodecanedimethanol], the CC50 at 24 h is greater than 90 µM.

`CCCCCCCCCCC=CC#N` [Tridec-2-enenitrile]: the CC50 at 24 h is greater than 90 µM.

`CCCCCCCCCCCCC` [Tridecane]: the CC50 at 24 h was greater than 90 µM.

Turning to `O=C(O)CCCCCCCCCCCC(=O)O` [Tridecanedioic acid], the CC50 at 24 h was greater than 90 µM.

`CCCCCCCCCCCCC(=O)O` [Tridecanoic acid] came in with a CC50 at 24 h greater than 90 µM.

With `C=C(C)C(=O)OCCCCCCCCCCCCC` [Tridecyl methacrylate], the CC50 at 24 h is greater than 90 µM.

For `CCCCCCCCCCCCCN1CC(C)OC(C)C1` (stereo not shown) [Tridemorph], the CC50 at 24 h was greater than 90 µM.

Compound `CC[N+](CC)(CC)CCC(O)(c1ccccc1)C1CCCCC1` (stereo not shown) [Tridihexethyl chloride] had a CC50 at 24 h greater than 20 µM.

On to `CCCCCCCCCCCCN(CCCCCCCCCCCC)CCCCCCCCCCCC` [Tridodecylamine], for which the CC50 at 24 h is greater than 90 µM.

`CCCCCCCCCCCCCCCCCC(=O)O` [Triethanolamine stearate]: the CC50 at 24 h was greater than 90 µM.

Take `CCO[Si](CC(C)C)(OCC)OCC` [Triethoxy(2-methylpropyl)silane]: the CC50 at 24 h is greater than 90 µM.

`CCO[Si](OCC)(OCC)c1ccccc1` [Triethoxy(phenyl)silane] yielded a CC50 at 24 h greater than 90 µM.

As to `CCO[Si](CCC1CCC2OC2C1)(OCC)OCC` (stereo not shown) [Triethoxy[2-(7-oxabicyclo[4.1.0]hept-3-yl)ethyl]silane], the CC50 at 24 h is greater than 90 µM.

For `CCO[Si](C)(OCC)OCC` [Triethoxymethylsilane], the CC50 at 24 h is greater than 90 µM.

The compound `CCCCCCCC[Si](OCC)(OCC)OCC` [Triethoxyoctylsilane] gave a CC50 at 24 h greater than 90 µM.

`CCCCC[Si](OCC)(OCC)OCC` [Triethoxypentylsilane] registered a CC50 at 24 h greater than 90 µM.

In the case of `CCOC(=O)CC(O)(CC(=O)OCC)C(=O)OCC` [Triethyl citrate], the CC50 at 24 h was greater than 90 µM.

`CCN(CC)CC` [Triethylamine] gave a CC50 at 24 h greater than 100 µM.

Staying with this series, now noted: rat, gh3-tre-luc cells, AC50 (uM) modified / 1000, Tox21_110001=Tox21_110843; viability, 1 nM T3 present, 24 h.
`COP(=O)(OC)C(O)C(Cl)(Cl)Cl` (stereo not shown) [Trichlorfon] had a CC50 at 24 h greater than 50 µM.

Still in this series, the particulars now being: rat, gh3-tre-luc cells, AC50 (uM) modified / 1000, Tox21_110001=Tox21_111700; viability, 1 nM T3 present, 24 h.
For `O=C(Nc1ccc(Br)cc1)c1cc(Br)cc(Br)c1O` [Tribromsalan], the CC50 at 24 h was determined as 14.2 µM. This lies in the double-digit micromolar range.

The same series, now with this note: rat, gh3-tre-luc cells, AC50 (uM) modified / 1000, Tox21_110001=Tox21_200535; viability, 1 nM T3 present, 24 h.
As for `O=CC(Br)(Br)Br` [Tribromoacetaldehyde], the midpoint of cytotoxicity, the CC50 at 24 h, lay at 25.5 µM.

The same series, now with this note: rat, gh3-tre-luc cells, AC50 (uM) modified / 1000, Tox21_110001=Tox21_200913; viability, 1 nM T3 present, 24 h.
`O=C(O)C(Br)(Br)Br` [Tribromoacetic acid] had a CC50 at 24 h greater than 90 µM.

The same series, now with this note: rat, gh3-tre-luc cells, AC50 (uM) modified / 1000, Tox21_110001=Tox21_201546; viability, 1 nM T3 present, 24 h.
Take `Cc1ccc(OP(=O)(Oc2ccc(C)cc2)Oc2ccc(C)cc2)cc1` [Tricresyl phosphate]: the CC50 at 24 h was greater than 90 µM.

Still in this series, the particulars now being: rat, gh3-tre-luc cells, AC50 (uM) modified / 1000, Tox21_110001=Tox21_201607; viability, 1 nM T3 present, 24 h.
`COP(=O)(OC)C(O)C(Cl)(Cl)Cl` (stereo not shown) [Trichlorfon] registered a 50% cytotoxic concentration (CC50) at 24 h greater than 90 µM.

The same series, now with this note: rat, gh3-tre-luc cells, AC50 (uM) modified / 1000, Tox21_110001=Tox21_201934; viability, 1 nM T3 present, 24 h.
As to `CCCCSP(=O)(SCCCC)SCCCC` [Tribufos], the cytotoxic concentration (CC50) at 24 h is greater than 90 µM.

Staying with this series, now noted: rat, gh3-tre-luc cells, AC50 (uM) modified / 1000, Tox21_110001=Tox21_202442; viability, 1 nM T3 present, 24 h.
Take `O=C(Nc1ccc(Br)cc1)c1cc(Br)cc(Br)c1O` [Tribromsalan]: the half-maximal cytotoxic concentration (CC50) at 24 h amounted to 5.41 µM. This lies in the single-digit micromolar range.

Staying with this series, now noted: rat, gh3-tre-luc cells, AC50 (uM) modified / 1000, Tox21_110001=Tox21_202983; viability, 1 nM T3 present, 24 h.
Compound `Cc1ccccc1OP(=O)(Oc1ccccc1C)Oc1ccccc1C` [Tri-o-cresyl phosphate] had a CC50 at 24 h of 63.4 µM.

The same series, now with this note: rat, gh3-tre-luc cells, AC50 (uM) modified / 1000, Tox21_110001=Tox21_303223; viability, 1 nM T3 present, 24 h.
The compound `O=C(Nc1ccc(Br)cc1)c1cc(Br)cc(Br)c1O` [Tribromsalan] came in with a CC50 at 24 h of 6.43 µM.
